Measurements taken from publication PMC4603696, “Discovery and characterization of novel small-molecule inhibitors targeting nicotinamide phosphoribosyltransferase” (Scientific Reports, 2015).
Where two headings read alike, the source gives them in different places.

Tests used:
NAMPT = NAMPT (Homo sapiens, UniProt P43490); test: NAMPT activity assay by fluorescence of NMN derivative (HTS system), IC50 determination; assay type: biochemical; parameters: His-tag; made in house; host or cells: E. coli BL21-CodonPlus (DE3)-RIL; details: recombinant human NAMPT, mean ± s.e.; read-out: NAMPT IC50
Chain of NAMPT (P43490 whole entry): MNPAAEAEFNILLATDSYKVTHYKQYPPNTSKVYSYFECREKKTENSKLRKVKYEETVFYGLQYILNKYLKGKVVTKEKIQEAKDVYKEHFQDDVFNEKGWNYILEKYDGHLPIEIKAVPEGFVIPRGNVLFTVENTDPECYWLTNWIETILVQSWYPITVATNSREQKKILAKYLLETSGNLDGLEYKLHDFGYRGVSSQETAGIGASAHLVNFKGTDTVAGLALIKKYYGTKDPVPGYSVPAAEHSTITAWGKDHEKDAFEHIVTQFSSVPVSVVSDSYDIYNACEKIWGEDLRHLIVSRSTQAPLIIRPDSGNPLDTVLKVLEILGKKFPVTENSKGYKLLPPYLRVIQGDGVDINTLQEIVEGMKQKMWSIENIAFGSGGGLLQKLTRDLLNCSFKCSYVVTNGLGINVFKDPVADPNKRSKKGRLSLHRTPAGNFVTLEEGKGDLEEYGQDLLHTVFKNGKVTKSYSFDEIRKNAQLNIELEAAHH

HCT116 cells = test: SRB assay in HCT116; assay type: cell-based; details: Homo sapiens, HCT-116; HCT116, SRB, 10-fold concentration gradient; read-out: anti-proliferation IC50, initial screen
Procedure: (§1) Sulfor hod am ine B p rotei n st ai ning (SRB) assay
(§2) Cell pr oliferat ion was eva lua ted by sul for hod amine B pr ot ein st aini ng (SRB) assa y10-12.
(§3) Briefly, cel ls were se ede d int o 96-well pl ates, cul tur ed overni ght , and trea ted with correspond ing com poun ds for 72 h. Cells were the n fixe d with 10% trichl or oa cetic aci d and st ained with sul for hoda mine B (Sigm a). Sul for hoda mine B in the cells was di sso lved in 10 mmol/L Tris-HCl and was measured at 515 nm usi ng a multiw ell spect ropho tometer (VERSA max, Mol ecul ar Devi ces, Sunnyva le, CA). The inhi bi tion rat e on cell pr olif eratio n was cal culated for each well as (A515contr ol cells-A 515tr eated cells)/A515contr ol cells×100 % (A515:
(§4) OD va lue at 515 nm ). The averag e IC50 va lue s were de termine d by Logit method from at leas t t hr eei nde pe nde nt test s.

A549 cells = test: SRB assay in A549; assay type: cell-based, human; details: Homo sapiens; A549, SRB, 10-fold concentration gradient; read-out: anti-proliferation IC50, initial screen
Procedure: as §1, §2, §3, §4

HepG2 cells = test: Sulforhodamine B protein staining (SRB) assay in HepG2; assay type: cell-based, human; details: Homo sapiens
Procedure: as §1, §2, §3, §4

[1] = HepG2, 72 h, HepG2, second test, 2-fold concentration gradient, 72 hours, read-out: SRB assay in HepG2: IC50
[2] = HepG2, HepG2, SRB, 10-fold concentration gradient, read-out: anti-proliferation IC50, initial screen

SMILES | IC50 (NAMPT) [nM] | IC50 (HCT116 cells) [nM] | IC50 (A549 cells) [nM] | IC50 (HepG2 cells; [1]) [nM] | IC50 (HepG2 cells; [2]) [nM]
Cc1ccccc1CN1CCN(S(=O)(=O)c2ccc(NC(=S)NCc3cccnc3)cc2)CC1 [MS27] | 12.4 ± 0.9 |  |  |  | 
Cc1cccc(CN2CCN(S(=O)(=O)c3ccc(NC(=S)NCc4cccnc4)cc3)CC2)c1 [MS28] | 16.8 ± 1.5 | < 5000 | < 5000 | > 10000 | < 5000
O=S(=O)(c1ccc(NC(=S)NCc2cccnc2)cc1)N1CCN(Cc2cccc(Cl)c2)CC1 [MS29] | 12.6 ± 1.7 |  |  |  | 
O=S(=O)(c1ccc(NC(=S)NCc2cccnc2)cc1)N1CCN(Cc2ccccc2Cl)CC1 [MS30] | 15.7 ± 2.5 |  |  |  | 
O=S(=O)(c1ccc(NC(=S)NCc2cccnc2)cc1)N1CCN(Cc2ccc(Cl)cc2)CC1 [MS31] | 13.7 ± 1.6 | < 5000 | < 5000 | 5810 ± 710 | < 5000
O=S(=O)(c1ccc(NC(=S)NCc2cccnc2)cc1)N1CCN(Cc2ccc(Br)cc2)CC1 [MS32] | 24.2 ± 1.6 | < 5000 | < 5000 | 4860 ± 150 | < 5000
O=S(=O)(c1ccc(NC(=S)NCc2cccnc2)cc1)N1CCN(Cc2ccc3ccccc3c2)CC1 [MS33] | 29.5 ± 0.8 | < 5000 | < 5000 | 8940 ± 450 | < 5000
O=S(=O)(c1ccc(NC(=S)NCc2cccnc2)cc1)N1CCN(Cc2ccc(OC(F)(F)F)cc2)CC1 [MS35] | 36.9 ± 4.6 | < 5000 | < 5000 | 4830 ± 130 | < 5000
CCCCc1ccc(CN2CCN(S(=O)(=O)c3ccc(NC(=S)NCc4cccnc4)cc3)CC2)cc1 [MS36] | 79.8 ± 6.1 |  |  |  | 
O=[N+]([O-])c1ccc(CN2CCN(S(=O)(=O)c3ccc(NC(=S)NCc4cccnc4)cc3)CC2)cc1 [MS37] | 19.7 ± 2.1 | < 5000 | < 5000 | 4650 ± 1030 | < 5000
Nc1ccc(CN2CCN(S(=O)(=O)c3ccc(NC(=S)NCc4cccnc4)cc3)CC2)cc1 [MS38] | 19.9 ± 2.8 |  |  |  | 
O=S(=O)(c1ccc(NC(=S)NCc2cccnc2)cc1)N1CCN(Cc2nc3ccccc3[nH]2)CC1 [MS39] | 14 ± 0.3 |  |  |  | 
O=S(=O)(c1ccc(NC(=S)NCc2cccnc2)cc1)N1CCN(Cc2ccoc2)CC1 [MS40] | 48.7 ± 4.5 |  |  |  | 
O=S(=O)(c1ccc(NC(=S)NCc2cccnc2)cc1)N1CCN(Cc2ccsc2)CC1 [MS41] | 22.5 ± 0.8 |  |  |  | 
O=S(=O)(c1ccc(NC(=S)NCc2cccnc2)cc1)N1CCN(Cc2ccco2)CC1 [MS42] | 19.1 ± 2 |  |  |  | 
O=S(=O)(c1ccc(NC(=S)NCc2cccnc2)cc1)N1CCN(Cc2cccs2)CC1 [MS43] | 38.8 ± 1.8 |  |  |  | 
O=S(=O)(c1ccc(NC(=S)NCc2cccnc2)cc1)N1CCN(Cc2ccncc2)CC1 [MS44] | 13.7 ± 0.4 |  |  |  | 
O=S(=O)(c1ccc(NC(=S)NCc2cccnc2)cc1)N1CCN(Cc2cccnc2)CC1 [MS45] | 9.8 ± 0.9 |  |  |  | 
Cc1ccc(N2CCN(S(=O)(=O)c3ccc(NC(=S)NCc4cccnc4)cc3)CC2)cc1 [MS46] | 15.4 ± 1.6 |  |  |  | 
COc1ccc(CCNC(=O)c2cc3ccccc3s2)cc1OC [compound 2161] | 149 ± 21 |  |  |  | 
O=C1C[C@H](c2ccc(O)cc2)Oc2c1c(O)cc(O)c2[C@@H]1C(=O)c2c(O)cc(O)cc2O[C@H]1c1ccc(O)cc1 [compound 3909] | 504 ± 124 |  |  |  | 
O=C(NCc1ccc(S(=O)(=O)NCc2cc(F)cc3c2OCOC3)s1)c1ccc(Cl)cc1 [compound 4162] | 777 ± 84 |  |  |  | 
COc1cccc(/C=C2/N=C(c3ccc(NC(=O)c4cccs4)cc3)OC2=O)c1OC [compound 6443] | 352 ± 45 |  |  |  | 
Cc1ccc2oc(=O)n(CCC(N)=NOC(=O)c3ccccc3)c2c1 [compound 7391] | 855 ± 170 |  |  |  | 
